Reference: the supplement of paper PMC5908809

Key:
[1] = system: normal NK cells expanded with K562-aAPC; test: percent inhibition of viability; higher = more inhibition; settings: 72 h, IL-2 2.5 ng/mL
Protocol: (§1)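 Drug sensitivity and resistance testing on K562-aAPC-expanded normal NK cells: 5 concentrations (10-fold steps over a 10,000-fold range), 72 h at 37 °C, viability by CellTiter-Glo normalised to DMSO and benzethonium chloride controls; DSS from the fitted curve.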

DERL-7 (IL-2 2.5 ng/mL) [2] = test: as above; settings: 72 h
IMC-1 (IL-2 20 ng/mL) [3] = test: as above; settings: 72 h
KAI3 (IL-2 2.5 ng/mL) [4] = test: as above; settings: 72 h
KHYG-1 (IL-2 2.5 ng/mL) [5] = test: as above; settings: 72 h
NK-92 (IL-2 2.5 ng/mL) [6] = test: as above; settings: 72 h
NK-YS (IL-2 2.5 ng/mL) [7] = test: as above; settings: 72 h
NKL (IL-2 2.5 ng/mL) [8] = test: as above; settings: 72 h
SNK-6 (IL-2 2.5 ng/mL) [9] = test: as above; settings: 72 h
YT (IL-2 2.5 ng/mL) [10] = test: as above; settings: 72 h
[11] = system: normal primary NK cells, pool 1 (3 donors) (IL-2 2.5 ng/mL); test: as above; settings: 72 h
[12] = system: normal primary NK cells, pool 1 (3 donors), resting (IL-2 0 ng/mL); test: as above; settings: 72 h
[13] = system: normal primary NK cells, pool 2 (3 donors) (IL-2 2.5 ng/mL); test: as above; settings: 72 h
[14] = system: normal primary NK cells, pool 3 (3 donors) (IL-2 2.5 ng/mL); test: as above; settings: 72 h
[15] = system: normal NK cells expanded with K562-aAPC; test: drug sensitivity score (DSS) (DSS units); higher = more sensitive; extreme values may be limits of the assay; settings: 72 h; IL-2 2.5 ng/mL
Protocol: as §1

DERL-7 (IL-2 2.5 ng/mL) [16] = test: as above; settings: 72 h
IMC-1 (IL-2 20 ng/mL) [17] = test: as above; settings: 72 h
KAI3 (IL-2 2.5 ng/mL) [18] = test: as above; settings: 72 h
KHYG-1 (IL-2 2.5 ng/mL) [19] = test: as above; settings: 72 h
NK-92 (IL-2 2.5 ng/mL) [20] = test: as above; settings: 72 h
NK-YS (IL-2 2.5 ng/mL) [21] = test: as above; settings: 72 h
NKL (IL-2 2.5 ng/mL) [22] = test: as above; settings: 72 h
SNK-6 (IL-2 2.5 ng/mL) [23] = test: as above; settings: 72 h
YT (IL-2 2.5 ng/mL) [24] = test: as above; settings: 72 h
[25] = system: normal primary NK cells, pool 1 (3 donors) (IL-2 2.5 ng/mL); test: as above; settings: 72 h
[26] = system: normal primary NK cells, pool 1 (3 donors), resting (IL-2 0 ng/mL); test: as above; settings: 72 h
[27] = system: normal primary NK cells, pool 2 (3 donors) (IL-2 2.5 ng/mL); test: as above; settings: 72 h
[28] = system: normal primary NK cells, pool 3 (3 donors) (IL-2 2.5 ng/mL); test: as above; settings: 72 h

COc1cc(N2CCC(N3CCN(C)CC3)CC2)ccc1Nc1ncnc(Nc2ccccc2S(=O)(=O)C(C)C)n1 [ASP3026] (max concentration tested 10000 nM)
percent inhibition of viability [%]
Settings | 1 nM | 10 nM | 100 nM | 1000 nM | 10000 nM
DERL-7 (IL-2 2.5 ng/mL) [2] | 0.73 | -6.32 | 2.12 | 0.42 | 57.2
IMC-1 (IL-2 20 ng/mL) [3] | -8.57 | -5.26 | -7.48 | -3.28 | 98.9
KAI3 (IL-2 2.5 ng/mL) [4] | 5.1 | 3.91 | 7.67 | 16.4 | 42.7
KHYG-1 (IL-2 2.5 ng/mL) [5] | -6.71 | 0.13 | -0.92 | 10.2 | 61.3
NK-92 (IL-2 2.5 ng/mL) [6] | -10.8 | -22.5 | -27.1 | -14.8 | 22.2
NK-YS (IL-2 2.5 ng/mL) [7] | -5.41 | -0.07 | -1.63 | 6.41 | 44.9
NKL (IL-2 2.5 ng/mL) [8] | -3.77 | -9.59 | 5.62 | 18.9 | 47.8
SNK-6 (IL-2 2.5 ng/mL) [9] | -14.8 | -8.98 | -26.5 | -35.9 | 8.43
YT (IL-2 2.5 ng/mL) [10] | -2.02 | -0.55 | 1.22 | 12.5 | 69.4
[1] | 0.75 | -1.15 | 0.69 | 7.2 | 96.3
[11] | -1.83 | 5.98 | 6.01 | 9.21 | 38.7
[12] | -11.5 | -0.46 | -1.76 | 10.4 | 39.3
[13] | -4.59 | -7.52 | 3.32 | -3.09 | 28.1
[14] | 1.7 | -6.92 | 8.07 | 2.81 | 13.3

Settings | drug sensitivity score
DERL-7 (IL-2 2.5 ng/mL) [16] | 3.14
IMC-1 (IL-2 20 ng/mL) [17] | 5.24
KAI3 (IL-2 2.5 ng/mL) [18] | 3.79
KHYG-1 (IL-2 2.5 ng/mL) [19] | 5.05
NK-92 (IL-2 2.5 ng/mL) [20] | 0.4
NK-YS (IL-2 2.5 ng/mL) [21] | 3.39
NKL (IL-2 2.5 ng/mL) [22] | 4.54
SNK-6 (IL-2 2.5 ng/mL) [23] | 0
YT (IL-2 2.5 ng/mL) [24] | 5.89
[15] | 6.45
[25] | 3.22
[26] | 3.53
[27] | 0.97
[28] | 0.03

CC(=O)Nc1cccc(-n2c(=O)n(C3CC3)c(=O)c3c(Nc4ccc(I)cc4F)n(C)c(=O)c(C)c32)c1 [Trametinib] (max concentration tested 250 nM)
percent inhibition of viability [%]
Settings | 0.025 nM | 0.25 nM | 2.5 nM | 25 nM | 250 nM
DERL-7 (IL-2 2.5 ng/mL) [2] | 1.02 | 7.15 | 24.3 | 38.5 | 49.2
IMC-1 (IL-2 20 ng/mL) [3] | -7.84 | -6.23 | -12.6 | -5.74 | -11.9
KAI3 (IL-2 2.5 ng/mL) [4] | -0.65 | 10.4 | 14.7 | 17.6 | 21.2
KHYG-1 (IL-2 2.5 ng/mL) [5] | -1.89 | -0.88 | 17.2 | 47.1 | 54.2
NK-92 (IL-2 2.5 ng/mL) [6] | -8.96 | -8.36 | -15.1 | -31.2 | -2.14
NK-YS (IL-2 2.5 ng/mL) [7] | -3.76 | 0.79 | 3.16 | 13.2 | 9.03
NKL (IL-2 2.5 ng/mL) [8] | -13.6 | -3.27 | 31.2 | 60.9 | 62.5
SNK-6 (IL-2 2.5 ng/mL) [9] | 8.07 | 2.1 | -22.8 | -18.2 | -19.1
YT (IL-2 2.5 ng/mL) [10] | -2.64 | -1.54 | 0.86 | 2.64 | -0.71
[1] | -1.03 | -2.71 | -0.52 | -0.63 | 1.09
[11] | -8.95 | -7.23 | 10.8 | 8.62 | 17.9
[12] | -7.3 | -4.37 | 3.53 | -1.6 | 4.62
[13] | -4.75 | -6.13 | -1.09 | 4.26 | -5.37
[14] | -14.5 | -14.1 | -12 | -11.3 | -11.4

Settings | drug sensitivity score
DERL-7 (IL-2 2.5 ng/mL) [16] | 10.2
IMC-1 (IL-2 20 ng/mL) [17] | 0.89
KAI3 (IL-2 2.5 ng/mL) [18] | 4.13
KHYG-1 (IL-2 2.5 ng/mL) [19] | 10.7
NK-92 (IL-2 2.5 ng/mL) [20] | 0.89
NK-YS (IL-2 2.5 ng/mL) [21] | 1.13
NKL (IL-2 2.5 ng/mL) [22] | 15.5
SNK-6 (IL-2 2.5 ng/mL) [23] | 0
YT (IL-2 2.5 ng/mL) [24] | 0
[15] | 0
[25] | 1.13
[26] | 0
[27] | 0
[28] | 0.89

CNC(=O)c1ccc(N2C(=S)N(c3ccc(C#N)c(C(F)(F)F)c3)C(=O)C23CCC3)cc1F [RD162] (max concentration tested 10000 nM)
percent inhibition of viability [%]
Settings | 1 nM | 10 nM | 100 nM | 1000 nM | 10000 nM
DERL-7 (IL-2 2.5 ng/mL) [2] | 2.54 | -3.32 | -8.09 | -8.58 | -5.45
IMC-1 (IL-2 20 ng/mL) [3] | -5.69 | -2.87 | -1.68 | 2.9 | 17.6
KAI3 (IL-2 2.5 ng/mL) [4] | -2.44 | -0.44 | 1.83 | 0.32 | 18.6
KHYG-1 (IL-2 2.5 ng/mL) [5] | -6.85 | -6.64 | -5.8 | 2.74 | 10.4
NK-92 (IL-2 2.5 ng/mL) [6] | -11.3 | 5.25 | -15.2 | -0.07 | 33.8
NK-YS (IL-2 2.5 ng/mL) [7] | -12.1 | -6.94 | -9.33 | 1.8 | 16.9
NKL (IL-2 2.5 ng/mL) [8] | -11.3 | -5.72 | -0.58 | 7.33 | 23.9
SNK-6 (IL-2 2.5 ng/mL) [9] | -1.99 | -21.8 | 2.57 | -8.56 | 1.37
YT (IL-2 2.5 ng/mL) [10] | -8.11 | -4.09 | -6.39 | 3.85 | 24.7
[1] | -8.24 | -9.67 | -4.97 | 7.5 | 1.43
[11] | -2.22 | 4.97 | 8.69 | 3.69 | 20.8
[12] | 1.38 | 18.7 | 13.6 | 12.9 | 40.5
[13] | -7.24 | -1.28 | 0.84 | 3.39 | 11.3
[14] | -4.05 | -1.08 | 1.71 | -2.99 | 3.64

Settings | drug sensitivity score
DERL-7 (IL-2 2.5 ng/mL) [16] | 0
IMC-1 (IL-2 20 ng/mL) [17] | 0.76
KAI3 (IL-2 2.5 ng/mL) [18] | 0.52
KHYG-1 (IL-2 2.5 ng/mL) [19] | 0.01
NK-92 (IL-2 2.5 ng/mL) [20] | 1.56
NK-YS (IL-2 2.5 ng/mL) [21] | 0.56
NKL (IL-2 2.5 ng/mL) [22] | 1.84
SNK-6 (IL-2 2.5 ng/mL) [23] | 0
YT (IL-2 2.5 ng/mL) [24] | 1.51
[15] | 0
[25] | 0.72
[26] | 5.08
[27] | 0.09
[28] | 0
